The text below walks through data of ChEMBL document CHEMBL4616676, “Synthesis and Biological Activity of 2,22-Dimethylene Analogues of 19-Norcalcitriol and Related Compounds” (J Med Chem, 2020).

Active and inactive are the calls of the source. No cut-off for these calls is given here.

Assay [1] concerns Rattus norvegicus. The assay is described as follows: Induction of bone calcium mobilization in vitamin D-deficient Sprague-Dawley rat assessed as serum calcium level at 780 pmol, ip administered as 4 consecutive daily doses measured after 24 hrs post last dose by spectrometry relative to 1alpha,25-(OH)2D3. The class given is functional, organism-based.
Assay [2] relates to Rattus norvegicus. The assay is described as follows: Induction of bone calcium mobilization in vitamin D-deficient Sprague-Dawley rat assessed as serum calcium level at 87 pmol, ip administered as 4 consecutive daily doses measured after 24 hrs post last dose by spectrometry relative to 1alpha,25-(OH)2D3. The class given is functional, organism-based.
For assay [3], the target named is T1, Vitamin D3 receptor (Rattus norvegicus) (UniProt P13053).
T1 sequence (whole entry): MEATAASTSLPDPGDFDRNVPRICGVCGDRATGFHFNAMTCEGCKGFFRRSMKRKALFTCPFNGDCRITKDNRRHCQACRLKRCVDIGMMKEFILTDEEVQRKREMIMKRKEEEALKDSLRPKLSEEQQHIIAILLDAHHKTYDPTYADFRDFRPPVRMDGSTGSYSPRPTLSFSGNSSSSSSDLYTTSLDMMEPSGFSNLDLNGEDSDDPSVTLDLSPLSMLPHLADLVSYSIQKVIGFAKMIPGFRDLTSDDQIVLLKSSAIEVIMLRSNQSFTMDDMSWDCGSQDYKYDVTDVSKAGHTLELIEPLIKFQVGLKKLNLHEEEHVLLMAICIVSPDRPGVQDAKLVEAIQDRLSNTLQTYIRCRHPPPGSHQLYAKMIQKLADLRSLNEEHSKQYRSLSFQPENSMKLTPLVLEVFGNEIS
Kind of assay: Potency index, ratio of ED50 for 1-alpha,25-(OH)2D3 to ED50 for test compound for agonist activity at rat recombinant full length VDR expressed in rat ROS 17/2.8 cells transfected with 24-hydroxylase gene promoter assessed as transcriptional activation after 16 hrs by luciferase reporter gene assay. The class given is cell-based. Background: In a reporter assay the amount or activity of a reporter protein is the signal.

In assay [4] the target is T1, Vitamin D3 receptor (Rattus norvegicus). Kind of assay: Potency index, ratio of Ki for 1-alpha,25-(OH)2D3 to Ki for test compound for displacement of [3H]1-alpha,25-(OH)2D3 from rat recombinant full length VDR. On the technique in general: Displacement assays read how much labelled ligand stays bound in the presence of the test substance.
Assay [5] deals with T2, Vitamin D3 receptor (Homo sapiens) (UniProt P11473).
T2 sequence (whole entry): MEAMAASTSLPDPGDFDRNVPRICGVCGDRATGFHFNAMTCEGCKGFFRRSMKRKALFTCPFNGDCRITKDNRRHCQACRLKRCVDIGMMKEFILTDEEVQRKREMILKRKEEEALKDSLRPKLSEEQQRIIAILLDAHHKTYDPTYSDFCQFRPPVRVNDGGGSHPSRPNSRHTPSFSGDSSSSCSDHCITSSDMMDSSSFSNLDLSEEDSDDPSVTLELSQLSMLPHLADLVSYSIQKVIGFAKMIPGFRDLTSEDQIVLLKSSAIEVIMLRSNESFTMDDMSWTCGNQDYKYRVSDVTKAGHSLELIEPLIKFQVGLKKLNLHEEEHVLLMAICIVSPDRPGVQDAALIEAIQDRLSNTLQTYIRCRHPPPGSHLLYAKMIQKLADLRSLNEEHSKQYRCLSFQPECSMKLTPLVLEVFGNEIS
The assay is described as follows: Potency index, ratio of ED50 for 1-alpha,25-(OH)2D3 to ED50 for test compound for agonist activity at VDR in human HL60 cells assessed as induction of cell differentiation of promyelocytes to monocytes after 4 days by NBT reduction assay. The class given is cell-based. The following applies: HL-60.

Assay [6] deals with Rattus norvegicus. Kind of assay: Induction of intestinal calcium transport in vitamin D-deficient Sprague-Dawley rat assessed as ratio of serosal to mucosal calcium level at 87 pmol, ip administered as 4 consecutive daily doses measured after 24 hrs post last dose by gut sac assay relative to 1alpha,25-(OH)2D3. The class given is functional, organism-based.
Assay [7] concerns Rattus norvegicus. The assay is described as follows: Induction of intestinal calcium transport in vitamin D-deficient Sprague-Dawley rat assessed as ratio of serosal to mucosal calcium level at 780 pmol, ip administered as 4 consecutive daily doses measured after 24 hrs post last dose by gut sac assay relative to 1alpha,25-(OH)2D3. The class given is functional, organism-based.

As to `C=C1[C@H](O)CC(=C/C=C2\CCC[C@]3(C)[C@@H]([C@@H](C)C(=C)CCCC(O)(CC)CC)CC[C@@H]23)C[C@H]1O`, the outcome in assay [1], in assay [2], in assay [6] and in assay [7] was Active. In addition, the Ratio ED50 in assay [3] stood at 6.7; in assay [5] it was 50. In addition, in assay [4], the Ratio Ki was found to be 0.5.
On to `C=C1[C@H](O)CC(=C/C=C2\CCC[C@]3(C)[C@@H]([C@@H](C)C(=C)CCCC(C)(C)O)CC[C@@H]23)C[C@H]1O`, for which the outcome in assay [1], in assay [2], in assay [6] and in assay [7] was Active. In addition, the figures for the Ratio ED50 in assay [3] and in assay [5] were 20 and 50, respectively. For the same molecule, the Ratio Ki in assay [4] stood at 1.
`C=C1[C@H](O)CC(=C/C=C2\CCC[C@]3(C)[C@@H]([C@@H](C)CCCC(C)(C)O)CC[C@@H]23)C[C@H]1O`: the Ratio ED50 in assay [3] stood at 29; in assay [5] it was 25. For the same molecule, the Ratio Ki in assay [4] came out at 1.
For the molecule `C=C1[C@H](O)CC(=C/C=C2\CCC[C@]3(C)[C@@H]([C@@H](C)C(=C)CCC(C)C)CC[C@@H]23)C[C@H]1O`, the result in assay [1], in assay [2], in assay [6] and in assay [7] was Active. Besides, the Ratio ED50 in assay [3] stood at 0.05; in assay [5], 0.1. Also, the Ratio Ki in assay [4] came to 0.01.
Turning to `C=C1[C@H](O)CC(=C/C=C2\CCC[C@]3(C)[C@@H]([C@@H](C)C(=C)CCC4(O)CCCC4)CC[C@@H]23)C[C@H]1O`, the result in assay [1], in assay [2], in assay [6] and in assay [7] was Active. For the same molecule, the Ratio ED50 in assay [3] is 20; in assay [5], 29. The Ratio Ki in assay [4] was determined as 1.
Turning to `C=C1[C@H](O)CC(=C/C=C2\CCC[C@]3(C)[C@@H]([C@@H](C)C(=C)CCC(O)(CC)CC)CC[C@@H]23)C[C@H]1O`, the outcome in assay [1], in assay [2], in assay [6] and in assay [7] was Active. In addition, the Ratio ED50 in assay [3] amounted to 6.7; in assay [5], 10. In addition, the Ratio Ki in assay [4] was 1.
Consider `C=C1[C@H](O)CC(=C/C=C2\CCC[C@]3(C)[C@@H]([C@@H](C)C(=C)CCC(C)(C)O)CC[C@@H]23)C[C@H]1O`, for which the result in assay [1], in assay [2], in assay [6] and in assay [7] was Active. For the same molecule, the results for the Ratio ED50 in assay [3] and in assay [5] were 2.5 and 4, respectively. Besides, in assay [4], the Ratio Ki is 0.5.
